Measured values: the SangsterLogP compilation

logP	Structure (SMILES)
1.87	CN1CC(O)N(C(=O)NC2CCCCC2)C1=O (stereo unspecified)
3.46	CCCCCCCCNC(=O)N1C(=O)N(C)CC1O (stereo unspecified)
2.2	CC1CCCCC1NC(=O)N1C(=O)N(C)CC1O (stereo unspecified)
1.38	CCCCNC(=O)N1C(=O)N(C)CC1O (stereo unspecified)
0.96	CC(C)NC(=O)N1C(=O)N(C)CC1O (stereo unspecified)
1.75	CCCCCNC(=O)N1C(=O)N(C)CC1O (stereo unspecified)
1.38	CN1CC(O)N(C(=O)NC(C)(C)C)C1=O (stereo unspecified)
1.44	CN1CC(O)N(C(=O)Nc2ccccc2)C1=O (stereo unspecified)
2.39	CCCCCCNC(=O)N1C(=O)N(C)CC1O (stereo unspecified)
2.41	CC1CCC(NC(=O)N2C(=O)N(C)CC2O)CC1 (stereo unspecified)
1.32	CC(C)CNC(=O)N1C(=O)N(C)CC1O (stereo unspecified)
1.47	CN1CC(O)N(C(=O)NC2CCCC2)C1=O (stereo unspecified)
1.28	CCC(C)NC(=O)N1C(=O)N(C)CC1O (stereo unspecified)
0.71	CN1CC(O)N(C(=O)NCCCl)C1=O (stereo unspecified)
0.99	CCCNC(=O)N1C(=O)N(C)CC1O (stereo unspecified)
2.29	CN1CC(O)N(C(=O)NC2CCCCCC2)C1=O (stereo unspecified)
